Earlier results on 2 compounds are cited in patent publication US20230046815A1, “Wound honey with a pump dispenser” (priority 2021, published 2023).

The series deals with Salmonella sp. The settings on record: single agent.

With `O=C(O)CC(O)(CC(=O)O)C(=O)O` [Citric Acid], the “Minimal Bactericidal Concentration” value was 5%.

Regarding `OO` [Hydrogen Peroxide], the “Minimal Bactericidal Concentration” value was 3.12%.
